According to article PMC3006453 (Journal of structural biology, 2010):
Entries after “also recorded” stand apart in the source; their conditions may differ. Read-outs that look alike come from different tables or passages of the source.

Experiments:
AtMTAN1 [1] = target: T1, AtMTAN1 (Arabidopsis thaliana, UniProt Q9T0I8); conditions: ref Siu et al., 2008a, cited from earlier work; for hydrolysis of substrates with extended 5′-substituents by AtMTAN1: previous kinetics studies
AtMTAN1-Glu202Gln = AtMTAN1-Glu202Gln (Arabidopsis thaliana, UniProt Q9T0I8, E202Q); test: Isothermal titration calorimetry, ligand binding to AtMTAN1-Glu202Gln mutant
EcMTAN-Glu174Gln = EcMTAN-Glu174Gln (Escherichia coli, UniProt P0AF12, E174Q); test: Isothermal titration calorimetry, ligand binding to EcMTAN-Glu174Gln mutant; conditions: for N: ITC stoichiometry; for ΔH / −TΔS: pH 7.5, 25 °C
AtMTAN1 [2] = target: T1, AtMTAN1; test: Xanthine oxidase-coupled spectrophotometric assay of substrate hydrolysis; assay type: biochemical
AtMTAN1 [3] = target: T1, AtMTAN1; test: Isothermal titration calorimetry, ligand binding to wild-type AtMTAN1
EcMTAN = conditions: substrate SAH; no reference and method not given
AtMTAN2 = conditions: ref Siu et al., 2008a; cited from earlier work
[4] = ITC stoichiometry, single-binding site model
[5] = ITC, 50 mM sodium-HEPES pH 7.5, 25 °C, single-binding site model

5′-butylthioadenosine
hydrolysis of substrates with extended 5′-substituents by AtMTAN1 (AtMTAN1 [1]): can hydrolyze

5′-isobutylthioadenosine
hydrolysis of substrates with extended 5′-substituents by AtMTAN1 (AtMTAN1 [1]): can hydrolyze

5′-methylthioadenosine [MTA]
N (AtMTAN1-Glu202Gln; [4]): 0.97 ± 0.04
Kd (AtMTAN1-Glu202Gln; [5]): 94.8 ± 4 µM
ΔH (AtMTAN1-Glu202Gln; ITC, pH 7.5, 25 °C): 5.6 ± 0.3 kcal/mol
−TΔS (AtMTAN1-Glu202Gln; ITC, pH 7.5, 25 °C): -11.1 kcal/mol
N (EcMTAN-Glu174Gln; single-binding site model): 0.94 ± 0.01
Kd (EcMTAN-Glu174Gln; [5]): 4.8 ± 0.4 µM
ΔH (EcMTAN-Glu174Gln; ITC): -9.6 ± 0.1 kcal/mol
−TΔS (EcMTAN-Glu174Gln; ITC): 2.4 kcal/mol
Km (AtMTAN1 [2]; substrate MTA, wild-type AtMTAN1, no reference given): 1.5 ± 0.2 µM

Nc1ncnc2[nH]cnc12 [ADE, adenine]
Kd (AtMTAN1 [3]): 1.7 ± 0.1 µM
N (AtMTAN1 [3]; [4]): 0.99 ± 0.003
ΔH (AtMTAN1 [3]; ITC, pH 7.5, 25 °C): -10.3 ± 0.5 kcal/mol
−TΔS (AtMTAN1 [3]; ITC, pH 7.5, 25 °C): 2.4 kcal/mol

Nc1ncnc2c1ncn2[C@@H]1O[C@H](CSCC[C@H](N)C(=O)O)[C@@H](O)[C@H]1O [SAH, S-adenosylhomocysteine]
Kd (AtMTAN1-Glu202Gln): > 600 µM
Kd (AtMTAN1-Glu202Gln; [5]): No interaction is detected; also recorded: Not detected
Kd (EcMTAN-Glu174Gln): 9.3 ± 0.4 µM
N (EcMTAN-Glu174Gln; single-binding site model): 0.94 ± 0.01
ΔH (EcMTAN-Glu174Gln; ITC): -7.9 ± 0.1 kcal/mol
−TΔS (EcMTAN-Glu174Gln; ITC): 1.0 kcal/mol
catalytic activity (hydrolysis) of AtMTAN1 towards the substrate (AtMTAN1 [2]; kinetics and ITC studies, 10- and 30-min durations): does not hydrolyze; also recorded: did not detect catalytic activity
Km (EcMTAN): 1.3 ± 0.2 µM
activity towards the substrate (AtMTAN2): 14%
activity of AtMTAN1 towards the substrate (AtMTAN1 [1]): completely inactive
